Reference: DBAASP
Converted amounts (≈) assume the structure as drawn.

Experiments:
Test in all cases: ≥ marks a high value that may be exact or a test limit, other limits are often not marked, values filed in µg/mL are converted to µM
[1] = system: Staphylococcus aureus USA 300
[2] = system: Escherichia coli K-12
[3] = system: Bacillus megaterium
[4] = system: Klebsiella pneumoniae
[5] = system: Pseudomonas aeruginosa CMCCB 10104
[6] = system: Staphylococcus aureus ATCC 2592
[7] = system: Shigella dysenteriae
[8] = system: Candida albicans ATCC 2002
[9] = system: Escherichia coli ATCC 25922
[10] = system: Leuconostoc lactis
[11] = system: Listeria innocua
[12] = system: Bacillus subtilis ATCC 23857
[13] = system: Staphylococcus aureus ATCC 29213
[14] = system: Staphylococcus epidermidis ATCC 12228

Question: What does the source list for CC[C@H](C)[C@H](NC(=O)[C@H](CCCN=C(N)N)NC(=O)[C@H](CCC(N)=O)NC(=O)[C@@H](NC(=O)[C@@H](NC(=O)[C@H](CCCN=C(N)N)NC(=O)[C@H](CCCN=C(N)N)NC(=O)[C@H](Cc1ccccc1)NC(=O)[C@H](CCC(=O)O)NC(=O)CN)[C@@H](C)CC)C(C)C)C(=O)N[C@@H](CCCN=C(N)N)C(=O)N[C@@H](CC(=O)O)C(=O)N[C@@H](Cc1ccccc1)C(=O)N[C@@H](CC(C)C)C(=O)N[C@@H](CCCN=C(N)N)C(=O)N[C@@H](CC(N)=O)C(=O)N[C@@H](CC(C)C)C(=O)N[C@H](C(N)=O)C(C)C [GEFRRIVQRIRDFLRNLV]?
Answer: MIC [1]: 30 µM (≈ 68.6 µg/mL); MIC [2]: ≥ 60 µM

Question: Which results are given for CC[C@H](C)[C@H](NC(=O)CN)C(=O)NCC(=O)NCC(=O)N[C@@H](CCCCN)C(=O)N[C@H](C(=O)N[C@@H](CC(C)C)C(=O)N[C@@H](CO)C(=O)NCC(=O)N[C@@H](CC(C)C)C(=O)N[C@@H](CCCCN)C(=O)N[C@H](C(=O)N[C@@H](C)C(=O)N[C@@H](CC(C)C)C(=O)N[C@@H](CCCCN)C(=O)NCC(=O)N[C@@H](C)C(=O)N[C@@H](C)C(=O)N[C@@H](CCCCN)C(=O)N[C@@H](CCC(=O)O)C(=O)N[C@@H](CC(C)C)C(=O)N[C@@H](C)C(=O)N[C@@H](CO)C(=O)N[C@H](C(=O)N[C@@H](Cc1ccc(O)cc1)C(=O)N[C@@H](CC(C)C)C(=O)N[C@@H](Cc1cnc[nH]1)C(=O)O)[C@@H](C)O)[C@@H](C)O)[C@@H](C)CC [GIGGKILSGLKTALKGAAKELASTYLH]?
Answer: MIC [3]: 0.334 µM (≈ 0.9 µg/mL); MIC [4]: 1.15 µM (≈ 3.1 µg/mL); MIC [5]: 0.556 µM (≈ 1.5 µg/mL); MIC [6]: 1.15 µM (≈ 3.1 µg/mL); MIC [7]: 0.334 µM (≈ 0.9 µg/mL); MIC [8]: 5.56 µM (≈ 15 µg/mL); MIC [9]: 0.334 µM (≈ 0.9 µg/mL)

Question: Which results are given for CC[C@H](C)[C@H](NC(=O)CN)C(=O)NCC(=O)NCC(=O)N[C@H](C(=O)N[C@@H](CC(C)C)C(=O)N[C@@H](CC(C)C)C(=O)N[C@@H](CO)C(=O)N[C@@H](C)C(=O)NCC(=O)N[C@@H](CCCCN)C(=O)N[C@@H](C)C(=O)N[C@@H](C)C(=O)N[C@@H](CC(C)C)C(=O)N[C@@H](CCCCN)C(=O)NCC(=O)N[C@@H](CC(C)C)C(=O)N[C@@H](C)C(=O)N[C@@H](CCCCN)C(=O)N[C@H](C(=O)N[C@@H](CC(C)C)C(=O)N[C@@H](C)C(=O)N[C@@H](CCC(=O)O)C(=O)N[C@@H](CCCCN)C(=O)N[C@@H](Cc1ccc(O)cc1)C(=O)N[C@@H](C)C(=O)N[C@@H](CC(N)=O)C(N)=O)C(C)C)C(C)C [GIGGVLLSAGKAALKGLAKVLAEKYAN]?
Answer: MIC [3]: 0.574 µM (≈ 1.5 µg/mL); MIC [4]: 5.74 µM (≈ 15 µg/mL); MIC [5]: 1.03 µM (≈ 2.7 µg/mL); MIC [6]: 1.03 µM (≈ 2.7 µg/mL); MIC [7]: 1.03 µM (≈ 2.7 µg/mL); MIC [8]: 5.74 µM (≈ 15 µg/mL); MIC [9]: 1.03 µM (≈ 2.7 µg/mL)

Question: With CC[C@H](C)[C@H](NC(=O)[C@H](CO)NC(=O)[C@H](CO)NC(=O)[C@@H](NC(=O)[C@H](CC(C)C)NC(=O)CN)C(C)C)C(=O)NCC(=O)N[C@@H](CCCCN)C(=O)N[C@H](C(=O)N[C@@H](CC(C)C)C(=O)NCC(=O)NCC(=O)N[C@@H](CC(C)C)C(=O)N[C@@H](CC(C)C)C(=O)N[C@@H](C)C(=O)N[C@@H](CC(=O)O)C(=O)N[C@H](C(=O)N[C@H](C(=O)N[C@@H](CCCCN)C(=O)N[C@@H](CO)C(=O)N[C@@H](CCCCN)C(=O)NCC(=O)N[C@@H](CCC(N)=O)C(=O)N1CCC[C@H]1C(=O)N[C@@H](C)C(=O)O)C(C)C)C(C)C)C(C)C [GLVSSIGKVLGGLLADVVKSKGQPA] as the molecule, how does the MIC [10] read?
Answer: 10.4 µM (≈ 25 µg/mL)

Question: And the MIC [11]?
Answer: ≥ 41.8 µM

Question: CC[C@H](C)[C@H](N)C(=O)N[C@@H](CC(=O)O)C(=O)N[C@@H](Cc1c[nH]c2ccccc12)C(=O)N[C@@H](CCCCN)C(=O)N[C@@H](CCCCN)C(=O)N[C@@H](CC(C)C)C(=O)N[C@@H](CC(C)C)C(=O)N[C@@H](CC(=O)O)C(=O)N1CCC[C@H]1C(=O)N[C@@H](C)C(=O)N[C@@H](CCCCN)C(=O)N[C@@H](CCC(N)=O)C(=O)N[C@H](C(=O)N[C@@H](CC(C)C)C(N)=O)[C@@H](C)CC [IDWKKLLDPAKQIL] was tested. Which MIC [12] did it give?
Answer: ≥ 128 µM

Question: What about the MIC [13] of the same molecule?
Answer: 1020 µM (≈ 1720 µg/mL)

Question: And the MIC [14]?
Answer: 512 µM (≈ 860 µg/mL)

Question: What about the MIC [9] of the same molecule?
Answer: 256 µM (≈ 430 µg/mL)
